The source made the active and inactive calls. The rule behind the calls is not given here.
Experiments:
BGC-823 [1] = assay: Growth inhibition of human BGC823 cells after 72 hrs by MTT assay; format: functional, cell-based; conditions: BGC-823, 72 h
BGC-823 [2] = assay: Induction of apoptosis in human BGC823 cells assessed as upegulation of cleaved PARP protein expression at 2.5 to 5 uM after 48 hrs by Western blot method; format: functional, cell-based
BGC-823 [3] = assay: Potency index, ratio of compound effect to curcumin effect for growth inhibition of human BGC823 cells; format: functional
Homo sapiens [4] = species on record: Homo sapiens; assay: Inhibition of NFkappaB activation in human BGC823 cells assessed as potentiation of irrinotecan-induced cell growth inhibition at 1 uM after 48 hrs by inverted microscopic method relative to (3E,5E)-3-(2,3-dimethoxybenzylidene)-5-(4-hydroxy-3-methoxybenzylidene)dihydro-2H-pyran-4(3H)-one alone; format: cell-based
SGC-7901 [5] = assay: Induction of apoptosis in human SGC7901 cells assessed as upegulation of Bax protein expression at 2.5 to 5 uM after 48 hrs by Western blot method; format: functional, cell-based
SGC-7901 [6] = assay: Growth inhibition of human SGC7901 cells after 72 hrs by MTT assay; format: functional, cell-based; conditions: SGC-7901, 72 h
SGC-7901 [7] = assay: Inhibition of colony formation in human SGC7901 cells treated for 12 hrs followed by incubation in drug free medium for 14 days by crystal violet staining based assay; format: functional, cell-based
Homo sapiens [8] = species on record: Homo sapiens; assay: Inhibition of NFkappaB activation in human BGC823 cells assessed as potentiation of irrinotecan-induced cell growth inhibition at 1 uM after 72 hrs by MTT method relative to irrinotecan alone; format: cell-based
Homo sapiens [9] = species on record: Homo sapiens; assay: Inhibition of NFkappaB activation in human BGC823 cells assessed as potentiation of irrinotecan-induced decrease in survival cell count at 1 uM after 48 hrs by cell analyzer method; format: cell-based
BGC-823 [10] = assay: Induction of apoptosis in human BGC823 cells assessed as upegulation of cleaved caspase-3 protein expression at 2.5 to 5 uM after 48 hrs by Western blot method; format: functional, cell-based
Homo sapiens [11] = species on record: Homo sapiens; assay: Inhibition of NFkappaB activation in human BGC823 cells assessed as potentiation of irrinotecan-induced cell growth inhibition at 1 uM after 48 hrs by inverted microscopic method relative to irrinotecan alone; format: cell-based
Homo sapiens [12] = species on record: Homo sapiens; assay: Inhibition of NFkappaB activation in human BGC823 cells assessed as potentiation of irrinotecan-induced decrease in colony formation at 1 uM preincubated for 12 hrs followed by incubation in drug free medium for 11 days by crystal violet staining based assay; format: cell-based
SGC-7901 [13] = assay: Potency index, ratio of compound effect to curcumin effect for growth inhibition of human SGC7901 cells; format: functional
SGC-7901 [14] = assay: Induction of apoptosis in human SGC7901 cells assessed as apoptotic nuclei formation at 2.5 to 5 uM after 24 hrs by Hoechst 33258 staining based fluorescence microscopic method; format: functional, cell-based
Homo sapiens [15] = species on record: Homo sapiens; assay: Inhibition of NFkappaB activation in human BGC823 cells assessed as reduction in TNFalpha-induced IkBalpha degradation at 1 to 5 uM preincubated for 2 hrs followed by TNFalpha addition measured after 30 mins by Western blot method; format: cell-based
BGC-823 [16] = assay: Induction of apoptosis in human BGC823 cells assessed as upegulation of Bax protein expression at 2.5 to 5 uM after 48 hrs by Western blot method; format: functional, cell-based
BGC-823 [17] = assay: Inhibition of colony formation in human BGC823 cells treated for 12 hrs followed by incubation in drug free medium for 14 days by crystal violet staining based assay; format: functional, cell-based
SGC-7901 [18] = assay: Growth inhibition of human SGC7901 cells at 20 uM after 72 hrs by MTT assay; format: functional, cell-based
Homo sapiens [19] = species on record: Homo sapiens; assay: Inhibition of NFkappaB activation in human BGC823 cells assessed as potentiation of irrinotecan-induced cell growth inhibition at 1 uM after 72 hrs by MTT method relative to (3E,5E)-3-(2,3-dimethoxybenzylidene)-5-(4-hydroxy-3-methoxybenzylidene)dihydro-2H-pyran-4(3H)-one alone; format: cell-based
BGC-823 [20] = assay: Induction of apoptosis in human BGC823 cells assessed as downregulation of bcl2 protein expression at 2.5 to 5 uM after 48 hrs by Western blot method; format: functional, cell-based
BGC-823 [21] = assay: Growth inhibition of human BGC823 cells at 20 uM after 72 hrs by MTT assay; format: functional, cell-based
SGC-7901 [22] = assay: Induction of apoptosis in human SGC7901 cells assessed as downregulation of bcl2 protein expression at 2.5 to 5 uM after 48 hrs by Western blot method; format: functional, cell-based
Homo sapiens [23] = species on record: Homo sapiens; assay: Inhibition of NFkappaB activation in human SGC7901 cells assessed as reduction in TNFalpha-induced IkBalpha degradation at 1 to 5 uM preincubated for 2 hrs followed by TNFalpha addition measured after 30 mins by Western blot method; format: cell-based
SGC-7901 [24] = assay: Induction of apoptosis in human SGC7901 cells assessed as upegulation of cleaved PARP protein expression at 2.5 to 5 uM after 48 hrs by Western blot method; format: functional, cell-based
Mus musculus = species on record: Mus musculus; assay: Growth inhibition of MFC cells at 20 uM after 72 hrs by MTT assay; format: functional
SGC-7901 [25] = assay: Induction of apoptosis in human SGC7901 cells assessed as upegulation of cleaved caspase-3 protein expression at 2.5 to 5 uM after 48 hrs by Western blot method; format: functional, cell-based
SGC-7901 [26] = assay: Inhibition of colony formation in human SGC7901 cells at 5 uM treated for 12 hrs followed by incubation in drug free medium for 14 days by crystal violet staining based assay; format: functional, cell-based
BGC-823 [27] = assay: Inhibition of colony formation in human BGC823 cells at 5 uM treated for 12 hrs followed by incubation in drug free medium for 14 days by crystal violet staining based assay; format: functional, cell-based

## COc1cc(/C=C2\COC/C(=C\c3cccc(OC)c3OC)C2=O)ccc1O
BGC-823 [1]
  IC50: 3500 nM
BGC-823 [2]
  Activity: Active
BGC-823 [3]
  Ratio: >10
Homo sapiens [4]
  fold change (FC): 3
SGC-7901 [5]
  Activity: Active
SGC-7901 [6]
  IC50: 1600 nM
SGC-7901 [7]
  inhibition: Dose-dependent effect
Homo sapiens [8]
  fold change (FC): 10
Homo sapiens [9]
  inhibition: Active
BGC-823 [10]
  Activity: Active
Homo sapiens [11]
  fold change (FC): 2
Homo sapiens [12]
  inhibition: Active
SGC-7901 [13]
  Ratio: >2
SGC-7901 [14]
  Activity: Active
Homo sapiens [15]
  inhibition: Dose-dependent effect
BGC-823 [16]
  Activity: Active
BGC-823 [17]
  inhibition: Dose-dependent effect
SGC-7901 [18]
  growth inhibition (GI): Active
Homo sapiens [19]
  fold change (FC): 2.5
BGC-823 [20]
  Activity: Active
BGC-823 [21]
  growth inhibition (GI): Active
SGC-7901 [22]
  Activity: Active
Homo sapiens [23]
  inhibition: Dose-dependent effect
SGC-7901 [24]
  Activity: Active
Mus musculus
  growth inhibition (GI): Active
SGC-7901 [25]
  Activity: Active

## Cc1ccc(S(=O)(=O)/C=C/C#N)cc1
SGC-7901 [26]
  inhibition: Active
BGC-823 [27]
  inhibition: Active

## COc1ccc(/C=C2\COC/C(=C\c3ccc(O)c(OC)c3)C2=O)c(OC)c1
SGC-7901 [13]
  Ratio: >2
SGC-7901 [18]
  growth inhibition (GI): Active

## COc1ccc(/C=C2\COC/C(=C\c3ccc(O)c(OC)c3)C2=O)cc1O
BGC-823 [3]
  Ratio: >10
SGC-7901 [13]
  Ratio: >2
SGC-7901 [18]
  growth inhibition (GI): Active
BGC-823 [21]
  growth inhibition (GI): Active
Mus musculus
  growth inhibition (GI): Active

## COc1cc(/C=C/C(=O)CC(=O)/C=C/c2ccc(O)c(OC)c2)ccc1O
SGC-7901 [18]
  growth inhibition (GI): Active
BGC-823 [21]
  growth inhibition (GI): Active
Mus musculus
  growth inhibition (GI): Active

## Cc1ccc2nc(NCCN)c3ncc(C)n3c2c1
SGC-7901 [18]
  growth inhibition (GI): Active
BGC-823 [21]
  growth inhibition (GI): Active
Mus musculus
  growth inhibition (GI): Active

## COc1ccc(/C=C2\COC/C(=C\c3ccc(O)c(OC)c3)C2=O)c(C(F)(F)F)c1
BGC-823 [3]
  Ratio: >10
SGC-7901 [13]
  Ratio: >2
SGC-7901 [18]
  growth inhibition (GI): Active
BGC-823 [21]
  growth inhibition (GI): Active

## COc1ccc(OC)c(/C=C2\COC/C(=C\c3ccc(O)c(OC)c3)C2=O)c1
BGC-823 [3]
  Ratio: >10
SGC-7901 [13]
  Ratio: >2
SGC-7901 [18]
  growth inhibition (GI): Active
BGC-823 [21]
  growth inhibition (GI): Active
Mus musculus
  growth inhibition (GI): Active
